{
  "source": "the OligoGym collection",
  "biological_target": "SCN2A",
  "assay": "mouse, dose not given",
  "settings": "ASO",
  "note": "HELM strings list units from the 5' end as sugar, base in round brackets, then linkage (d deoxyribose, r ribose, m 2'-O-methyl, p phosphodiester). Strings are as the collection lists them; they lack the last nucleoside at the 3' end of the tested compound. [moe] = 2'-O-(2-methoxyethyl) (MOE); [sp] = phosphorothioate linkage; [m5C] = 5-methylcytosine",
  "data": [
    {"substance": "RNA1{[moe](G)[sp].[moe](T)p.[moe](A)p.[moe](A)p.d(T)[sp].d([m5C])[sp].d(A)[sp].d([m5C])[sp].d(T)[sp].d(T)[sp].d(T)[sp].d([m5C])[sp].d(A)[sp].d(T)[sp].[moe]([m5C])p.[moe]([m5C])p.[moe](A)p.[moe]([m5C])[sp].[moe](G)}$$$$ (last 3' nucleoside missing)", "values": [
      {"measurement": "3 h FOB score", "value": 2, "unit": "score 0-7"}
    ]},
    {"substance": "RNA1{[moe](A)[sp].[moe](A)p.[moe](T)p.[moe](T)p.d([m5C])[sp].d(T)[sp].d(A)[sp].d(T)[sp].d(T)[sp].d(T)[sp].d(T)[sp].d(A)[sp].d(T)[sp].d(A)[sp].[moe](A)p.[moe](A)p.[moe](T)p.[moe](G)[sp].[moe]([m5C])}$$$$ (last 3' nucleoside missing)", "values": [
      {"measurement": "3 h FOB score", "value": 0, "unit": "score 0-7"}
    ]},
    {"substance": "RNA1{[moe]([m5C])[sp].[moe](T)p.[moe](G)p.[moe]([m5C])p.[moe](A)p.[moe](T)[sp].d(G)[sp].d(T)[sp].d(A)[sp].d(A)[sp].d([m5C])[sp].d([m5C])[sp].d(T)[sp].d(T)[sp].[moe](T)p.[moe](A)[sp].[moe](T)}$$$$ (last 3' nucleoside missing)", "values": [
      {"measurement": "3 h FOB score", "value": 0, "unit": "score 0-7"}
    ]},
    {"substance": "RNA1{[moe]([m5C])[sp].[moe]([m5C])p.[moe](A)p.[moe]([m5C])p.[moe](G)p.[moe](A)p.d([m5C])[sp].d(A)[sp].d(T)[sp].d(A)[sp].d(T)[sp].d(T)[sp].d(T)[sp].d(T)[sp].d(T)[sp].d([m5C])[sp].[moe](T)p.[moe](A)[sp].[moe]([m5C])}$$$$ (last 3' nucleoside missing)", "values": [
      {"measurement": "3 h FOB score", "value": 0, "unit": "score 0-7"}
    ]},
    {"substance": "RNA1{[moe]([m5C])[sp].[moe](T)p.[moe](G)p.[moe]([m5C])p.[moe](A)p.d(T)[sp].d(G)[sp].d(T)[sp].d(A)[sp].d(A)[sp].d([m5C])[sp].d([m5C])[sp].d(T)[sp].d(T)[sp].d(T)[sp].[moe](A)p.[moe](T)p.[moe](A)[sp].[moe]([m5C])}$$$$ (last 3' nucleoside missing)", "values": [
      {"measurement": "3 h FOB score", "value": 0, "unit": "score 0-7"}
    ]},
    {"substance": "RNA1{[moe]([m5C])[sp].[moe](A)p.[moe](T)p.[moe](G)p.[moe]([m5C])p.[moe](A)p.d(T)[sp].d(A)[sp].d(A)[sp].d(T)[sp].d([m5C])[sp].d([m5C])[sp].d([m5C])[sp].d(A)[sp].d(T)[sp].d(T)[sp].[moe](A)p.[moe](T)[sp].[moe](A)}$$$$ (last 3' nucleoside missing)", "values": [
      {"measurement": "3 h FOB score", "value": 0, "unit": "score 0-7"}
    ]},
    {"substance": "RNA1{[moe]([m5C])[sp].[moe](T)p.[moe]([m5C])p.[moe](T)p.[moe](T)p.d(T)[sp].d([m5C])[sp].d(T)[sp].d(T)[sp].d(A)[sp].d(T)[sp].d(T)[sp].d(T)[sp].d([m5C])[sp].d(T)[sp].[moe](G)p.[moe](T)p.[moe](T)[sp].[moe](T)}$$$$ (last 3' nucleoside missing)", "values": [
      {"measurement": "3 h FOB score", "value": 0, "unit": "score 0-7"}
    ]},
    {"substance": "RNA1{[moe](A)[sp].[moe](T)p.[moe](T)p.[moe]([m5C])p.[moe](T)p.[moe](A)p.d(T)[sp].d(T)[sp].d(T)[sp].d(T)[sp].d(A)[sp].d(T)[sp].d(A)[sp].d(A)[sp].d(A)[sp].d(T)[sp].[moe](G)p.[moe]([m5C])[sp].[moe]([m5C])}$$$$ (last 3' nucleoside missing)", "values": [
      {"measurement": "3 h FOB score", "value": 2, "unit": "score 0-7"}
    ]},
    {"substance": "RNA1{[moe](T)[sp].[moe](T)p.[moe]([m5C])p.[moe](T)p.[moe](G)p.[moe]([m5C])p.d(A)[sp].d(T)[sp].d(G)[sp].d(T)[sp].d(A)[sp].d(A)[sp].d([m5C])[sp].d([m5C])[sp].d(T)[sp].d(T)[sp].[moe](T)p.[moe](A)[sp].[moe](T)}$$$$ (last 3' nucleoside missing)", "values": [
      {"measurement": "3 h FOB score", "value": 0, "unit": "score 0-7"}
    ]},
    {"substance": "RNA1{[moe](A)[sp].[moe](T)p.[moe](G)p.[moe](T)p.d(A)[sp].d(A)[sp].d(T)[sp].d([m5C])[sp].d(A)[sp].d([m5C])[sp].d(T)[sp].d(T)[sp].d(T)[sp].d([m5C])[sp].[moe](A)p.[moe](T)p.[moe]([m5C])p.[moe]([m5C])[sp].[moe](A)}$$$$ (last 3' nucleoside missing)", "values": [
      {"measurement": "3 h FOB score", "value": 0.33, "unit": "score 0-7"}
    ]},
    {"substance": "RNA1{[moe]([m5C])[sp].[moe](T)p.[moe](G)p.[moe]([m5C])p.d(A)[sp].d(T)[sp].d(G)[sp].d(T)[sp].d(A)[sp].d(A)[sp].d([m5C])[sp].d([m5C])[sp].d(T)[sp].d(T)[sp].[moe](T)p.[moe](A)p.[moe](T)p.[moe](A)[sp].[moe]([m5C])}$$$$ (last 3' nucleoside missing)", "values": [
      {"measurement": "3 h FOB score", "value": 0, "unit": "score 0-7"}
    ]},
    {"substance": "RNA1{[moe](T)[sp].[moe](A)p.[moe](A)p.[moe](T)p.[moe]([m5C])p.[moe](A)p.d([m5C])[sp].d(T)[sp].d(T)[sp].d(T)[sp].d([m5C])[sp].d(A)[sp].d(T)[sp].d([m5C])[sp].d([m5C])[sp].d(A)[sp].[moe]([m5C])p.[moe](G)[sp].[moe](A)}$$$$ (last 3' nucleoside missing)", "values": [
      {"measurement": "3 h FOB score", "value": 0, "unit": "score 0-7"}
    ]},
    {"substance": "RNA1{[moe](G)[sp].[moe]([m5C])p.[moe](A)p.[moe](T)p.d(G)[sp].d(T)[sp].d(A)[sp].d(A)[sp].d([m5C])[sp].d([m5C])[sp].d(T)[sp].d(T)[sp].d(T)[sp].d(A)[sp].[moe](T)p.[moe](A)p.[moe]([m5C])p.[moe](A)[sp].[moe](T)}$$$$ (last 3' nucleoside missing)", "values": [
      {"measurement": "3 h FOB score", "value": 0, "unit": "score 0-7"}
    ]},
    {"substance": "RNA1{[moe](A)[sp].[moe](T)p.[moe]([m5C])p.[moe](A)p.[moe]([m5C])p.[moe](T)p.d(T)[sp].d(T)[sp].d([m5C])[sp].d(A)[sp].d(T)[sp].d([m5C])[sp].d([m5C])[sp].d(A)[sp].d([m5C])[sp].d(G)[sp].[moe](A)p.[moe]([m5C])[sp].[moe](A)}$$$$ (last 3' nucleoside missing)", "values": [
      {"measurement": "3 h FOB score", "value": 0, "unit": "score 0-7"}
    ]},
    {"substance": "RNA1{[moe](T)[sp].[moe](T)p.[moe]([m5C])p.[moe](T)p.[moe](G)p.d([m5C])[sp].d(A)[sp].d(T)[sp].d(G)[sp].d(T)[sp].d(A)[sp].d(A)[sp].d([m5C])[sp].d([m5C])[sp].d(T)[sp].[moe](T)p.[moe](T)p.[moe](A)[sp].[moe](T)}$$$$ (last 3' nucleoside missing)", "values": [
      {"measurement": "3 h FOB score", "value": 1, "unit": "score 0-7"}
    ]},
    {"substance": "RNA1{[moe](G)[sp].[moe](A)p.[moe]([m5C])p.[moe]([m5C])p.[moe](A)p.[moe]([m5C])p.d(G)[sp].d([m5C])[sp].d(T)[sp].d(T)[sp].d(A)[sp].d([m5C])[sp].d(A)[sp].d(T)[sp].d([m5C])[sp].d(A)[sp].[moe](A)p.[moe](A)[sp].[moe]([m5C])}$$$$ (last 3' nucleoside missing)", "values": [
      {"measurement": "3 h FOB score", "value": 0, "unit": "score 0-7"}
    ]},
    {"substance": "RNA1{[moe](G)[sp].[moe](T)p.[moe](A)p.[moe](A)p.[moe]([m5C])p.[moe]([m5C])p.d(T)[sp].d(T)[sp].d(T)[sp].d(A)[sp].d(T)[sp].d(A)[sp].d([m5C])[sp].d(A)[sp].d(T)[sp].d(T)[sp].[moe](T)p.[moe](A)[sp].[moe](A)}$$$$ (last 3' nucleoside missing)", "values": [
      {"measurement": "3 h FOB score", "value": 0, "unit": "score 0-7"}
    ]},
    {"substance": "RNA1{[moe](G)[sp].[moe]([m5C])p.[moe]([m5C])p.[moe](A)p.d(T)[sp].d(T)[sp].d(T)[sp].d([m5C])[sp].d(T)[sp].d(A)[sp].d(T)[sp].d(A)[sp].d(A)[sp].d([m5C])[sp].[moe](T)p.[moe]([m5C])p.[moe](A)p.[moe](G)[sp].[moe]([m5C])}$$$$ (last 3' nucleoside missing)", "values": [
      {"measurement": "3 h FOB score", "value": 0, "unit": "score 0-7"}
    ]},
    {"substance": "RNA1{[moe](T)[sp].[moe]([m5C])p.[moe](T)p.[moe](G)p.[moe]([m5C])p.[moe](A)p.d(T)[sp].d(G)[sp].d(T)[sp].d(A)[sp].d(A)[sp].d([m5C])[sp].d([m5C])[sp].d(T)[sp].d(T)[sp].d(T)[sp].[moe](A)p.[moe](T)[sp].[moe](A)}$$$$ (last 3' nucleoside missing)", "values": [
      {"measurement": "3 h FOB score", "value": 0, "unit": "score 0-7"}
    ]},
    {"substance": "RNA1{[moe](A)[sp].[moe]([m5C])p.[moe]([m5C])p.[moe](A)p.[moe]([m5C])p.[moe](G)p.d([m5C])[sp].d(T)[sp].d(T)[sp].d(A)[sp].d([m5C])[sp].d(A)[sp].d(T)[sp].d([m5C])[sp].d(A)[sp].d(A)[sp].[moe](A)p.[moe]([m5C])[sp].[moe](A)}$$$$ (last 3' nucleoside missing)", "values": [
      {"measurement": "3 h FOB score", "value": 0, "unit": "score 0-7"}
    ]},
    {"substance": "RNA1{[moe]([m5C])[sp].[moe]([m5C])p.[moe](A)p.[moe](G)p.[moe](T)p.d(T)[sp].d(T)[sp].d(T)[sp].d(T)[sp].d(T)[sp].d([m5C])[sp].d(A)[sp].d(T)[sp].d(T)[sp].d(G)[sp].[moe]([m5C])p.[moe](A)p.[moe](T)[sp].[moe]([m5C])}$$$$ (last 3' nucleoside missing)", "values": [
      {"measurement": "3 h FOB score", "value": 1.33, "unit": "score 0-7"}
    ]},
    {"substance": "RNA1{[moe](T)[sp].[moe](T)p.[moe](T)p.[moe](G)p.[moe](G)p.d(G)[sp].d(T)[sp].d([m5C])[sp].d(T)[sp].d([m5C])[sp].d(T)[sp].d(T)[sp].d(A)[sp].d(G)[sp].d([m5C])[sp].[moe](T)p.[moe](T)p.[moe](T)[sp].[moe]([m5C])}$$$$ (last 3' nucleoside missing)", "values": [
      {"measurement": "3 h FOB score", "value": 3.33, "unit": "score 0-7"}
    ]},
    {"substance": "RNA1{[moe](T)[sp].[moe](G)p.[moe](G)p.[moe](A)p.[moe]([m5C])p.d([m5C])[sp].d(G)[sp].d(T)[sp].d([m5C])[sp].d(T)[sp].d([m5C])[sp].d(T)[sp].d(T)[sp].d(T)[sp].d([m5C])[sp].[moe](T)p.[moe](T)p.[moe](A)[sp].[moe](T)}$$$$ (last 3' nucleoside missing)", "values": [
      {"measurement": "3 h FOB score", "value": 1, "unit": "score 0-7"}
    ]},
    {"substance": "RNA1{[moe](A)[sp].[moe](T)p.[moe](T)p.[moe](T)p.[moe]([m5C])p.[moe](T)p.d(A)[sp].d(T)[sp].d(A)[sp].d(A)[sp].d([m5C])[sp].d(T)[sp].d([m5C])[sp].d(A)[sp].d(G)[sp].d([m5C])[sp].[moe](A)p.[moe](A)[sp].[moe]([m5C])}$$$$ (last 3' nucleoside missing)", "values": [
      {"measurement": "3 h FOB score", "value": 1, "unit": "score 0-7"}
    ]},
    {"substance": "RNA1{[moe]([m5C])[sp].[moe](A)p.[moe](T)p.[moe](T)p.d(T)[sp].d([m5C])[sp].d(T)[sp].d(A)[sp].d(T)[sp].d(A)[sp].d(A)[sp].d([m5C])[sp].d(T)[sp].d([m5C])[sp].[moe](A)p.[moe](G)p.[moe]([m5C])p.[moe](A)[sp].[moe](A)}$$$$ (last 3' nucleoside missing)", "values": [
      {"measurement": "3 h FOB score", "value": 0, "unit": "score 0-7"}
    ]},
    {"substance": "RNA1{[moe](G)[sp].[moe](A)p.[moe](G)p.[moe](A)p.[moe](T)p.d(T)[sp].d(G)[sp].d([m5C])[sp].d(T)[sp].d(T)[sp].d(T)[sp].d([m5C])[sp].d([m5C])[sp].d([m5C])[sp].d(T)[sp].[moe](T)p.[moe](T)p.[moe](A)[sp].[moe](T)}$$$$ (last 3' nucleoside missing)", "values": [
      {"measurement": "3 h FOB score", "value": 1, "unit": "score 0-7"}
    ]}
  ]
}
